# Test results from patent US20100029773A1 (priority 2004, published 2010).
# Tests used:
# [1] = test system: RML scrapie; details: for prolongation of the median of the survival time versus vehicle (75% DMSO) group: daily intraperitoneal, days 102-115 post intracerebral RML infection, 125-500 nmol
# [2] = biological target: association between PrPC and PrPSc (recombinant mouse PrP binding to PrP-Sc aggregates from human CJD brain) (Mus musculus, UniProt P04925); parameters: species or system mouse rPrP; human PrP-Sc; details: for classification in primary SIFT screening: primary hit = at least approx. 50% of the effect of 17 μM DOSPA on sum of bins in green sectors 1-5; for validation in SIFT dilution series (dose-dependent inhibition): six point dilution series 0.1-100 mM (so in the source)
# [3] = test system: PrPSc in scrapie-infected N2a (ScN2a) cells; experiment: cells; assay type: cell-based, mouse; details: for EC50: Mus musculus, ScN2a, read-out: EC50 of clearance of PrPSc from the cells; for activity against PrPSc propagation in cell culture: ScN2a cells, first screening at 15 mM (so in the source), 2 days
# [4] = test system: PrP-Sc deposits in spleen; parameters: species or system C57Bl6 mice; details: mouse, in vivo
# [5] = biological target: α-synuclein (Homo sapiens, UniProt P37840); experiment: DMSO-induced α-synuclein aggregation in vitro (fluorescence cross-correlation and SIFT analysis); assay type: biochemical; details: 10 μM in 1% DMSO, 3-5 h
# [6] = test system: PrPSc in scrapie-infected N2a (ScN2a) cells; details: cell culture; cited from earlier work
# Chain of association between PrPC and PrPSc (recombinant mouse PrP binding to PrP-Sc aggregates from human CJD brain) (P04925 23-231 limits assumed): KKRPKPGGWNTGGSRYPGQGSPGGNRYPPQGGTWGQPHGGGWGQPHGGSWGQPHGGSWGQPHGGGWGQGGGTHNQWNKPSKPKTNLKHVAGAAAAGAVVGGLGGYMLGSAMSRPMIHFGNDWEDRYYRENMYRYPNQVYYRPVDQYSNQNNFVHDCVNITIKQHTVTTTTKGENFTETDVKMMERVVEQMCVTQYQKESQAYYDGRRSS
Compound,prolongation of the median of the survival time versus vehicle (75% DMSO) group [1],classification in primary SIFT screening [2],validation in SIFT dilution series (dose-dependent inhibition) [2],also measured
"COc1ccc(C=NNC(=O)c2cccc(F)c2)cc1Br [309F02, 3-fluoro-N′-(3-bromo-4-methoxybenzylidene)-benzohydrazide]",11.5 days,primary SIFT hits,validated in SIFT dilution series,–
"O=C(NN=Cc1ccc2ccccc2c1)c1ccc(O)cc1O [301C09, 2,4-dihydroxy-N′-(naphthalen-2-ylmethylene)-benzohydrazide]",–,primary SIFT hits,validated in SIFT dilution series,–
"O=C(NN=Cc1ccc2ccccc2c1)c1cccc(Cl)c1 [306H03, 3-chloro-N′-(naphthalen-2-ylmethylene)-benzohydrazide]",–,primary SIFT hits,validated in SIFT dilution series,–
"COc1cc(C=NN=C(N)N)ccc1OCc1c(C)c(C)c(Br)c(C)c1C [313B02, 1-(4-(4-bromo-2,3,5,6-tetramethylbenzyloxy)-3-methoxybenzylidene)-2-diaminomethylene-hydrazine]",no such prolongation,primary SIFT hits,validated in SIFT dilution series,"toxic signs during treatment ([1]; intraperitoneal 50 μl per day of 5 mM, reduced to 2.5 mM after day 4): toxic signs; EC50 [3]: ~6 µM"
"O=C(NN=Cc1ccc2ccccc2c1)c1ccc(O)c(O)c1 [293G02, 3,4-dihydroxy-N′-(naphthalen-2-ylmethylene)-benzohydrazide]",9.5 days,primary SIFT hits,validated in SIFT dilution series,PrP-Sc deposits in spleen tissue [4]: no signs of PrP-Sc deposition could be detected; inhibition of formation of multimeric α-synuclein complexes [5]: inhibiting the formation of multimeric α-synuclein complexes to a large extent; EC50 [3]: ~2 µM; activity against PrPSc propagation in cell culture [3]: strongest cell culture activity
"O=C(NN=Cc1ccc2ccccc2c1)c1ccccc1O [297F03, 2-hydroxy-N′-(naphthalen-2-ylmethylene)-benzohydrazide]",–,primary SIFT hits,validated in SIFT dilution series,–
"CCCCCCCC/C=C\CCCCCCCCOCC(C[N+](C)(C)CCNC(=O)C(CCCNCCCN)NCCCN)OCCCCCCCC/C=C\CCCCCCCC.Cl.Cl.Cl.Cl.[Cl-] (centres unmarked) [DOSPA, reference compound]",–,–,–,SIFT signal in sectors of aggregates predominantly labelled with green rPrP ([2]; 17 μM): reduced SIFT signal; activity against PrPSc propagation in cell culture [3]: PrPSc is cleared from the infected cells; inhibition of PrPSc formation in scrapie-infected mouse cells (previous finding) [6]: inhibit PrPSc formation
"O=C(NN=Cc1ccc(Cl)cc1Cl)c1ccc(O)c(O)c1 [305E04, 3,4-dihydroxy-N′-(2,4-dichlorobenzylidene)-benzohydrazide]",–,primary SIFT hits,validated in SIFT dilution series,–
